Assay [1] deals with T1, hDNA2, Bloom syndrome and RPA (Homo sapiens, UniProt P51530).
T1 construct: made in house
T1 sequence (P51530 1-1060): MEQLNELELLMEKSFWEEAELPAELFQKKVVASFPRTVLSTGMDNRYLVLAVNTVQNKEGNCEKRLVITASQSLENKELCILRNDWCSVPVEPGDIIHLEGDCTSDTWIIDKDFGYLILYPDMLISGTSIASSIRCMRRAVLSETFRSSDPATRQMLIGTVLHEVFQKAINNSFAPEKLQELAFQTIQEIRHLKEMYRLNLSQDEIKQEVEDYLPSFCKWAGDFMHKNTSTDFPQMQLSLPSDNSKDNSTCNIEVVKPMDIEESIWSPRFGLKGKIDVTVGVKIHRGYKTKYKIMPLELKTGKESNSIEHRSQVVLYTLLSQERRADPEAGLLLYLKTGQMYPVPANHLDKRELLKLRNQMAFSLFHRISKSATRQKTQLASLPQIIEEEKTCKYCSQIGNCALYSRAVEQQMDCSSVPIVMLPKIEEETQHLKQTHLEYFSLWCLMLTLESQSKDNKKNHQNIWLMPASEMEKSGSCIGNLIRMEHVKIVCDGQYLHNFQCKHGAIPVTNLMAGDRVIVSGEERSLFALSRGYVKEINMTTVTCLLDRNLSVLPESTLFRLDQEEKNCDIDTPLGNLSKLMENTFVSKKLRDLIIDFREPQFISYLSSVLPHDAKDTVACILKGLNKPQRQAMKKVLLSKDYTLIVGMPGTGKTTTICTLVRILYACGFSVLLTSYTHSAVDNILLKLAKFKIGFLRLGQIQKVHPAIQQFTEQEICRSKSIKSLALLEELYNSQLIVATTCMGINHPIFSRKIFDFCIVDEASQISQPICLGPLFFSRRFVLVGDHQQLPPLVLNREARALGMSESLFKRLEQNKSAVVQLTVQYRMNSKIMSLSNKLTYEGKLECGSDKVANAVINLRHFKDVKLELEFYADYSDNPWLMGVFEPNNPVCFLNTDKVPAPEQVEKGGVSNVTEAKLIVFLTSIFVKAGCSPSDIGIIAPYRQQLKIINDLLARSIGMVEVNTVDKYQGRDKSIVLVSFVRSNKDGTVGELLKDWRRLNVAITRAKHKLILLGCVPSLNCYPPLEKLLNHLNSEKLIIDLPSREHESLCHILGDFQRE
In words: Reconstituted 5' DNA end resection assay (2-kb dsDNA degradation). To be noted: hDNA2 5 nM, Bloom syndrome 5 nM, RPA 100 nM. In kind it is biochemical. On the procedure:
Figure 3 Validation of the top two inhibitors identified from the high-throughput screen. […] (b, c) Dose-response curves for indicated compounds, cell based (U2OS cell line) (b) and in vitro (c). The IC50 value and the protein concentration used are indicated. Triple labeled substrate (0.1 μM) as in Figure 2a was used. The concentration range of inhibitors was 0.003–666.67 μM. […] The asterisks denote the radiolabel. Plotted are the average data from three independent experiments and the error bars represent 1 s.d.
Nuclease assays were performed in buffer R (20 mM Na-HEPES pH 7.5, 1 mM ATP, 0.1 mM DTT, 100 μg/ml bovine serum albumin, 0.05% Triton X-100, 2 mM MgCl2, 100 mM KCl) and contained 0.5 nM ends (2-kb substrate) or 5 nM ends (the ssDNA oligonucleotide PSOL6929) of DNA. Reactions containing Bloom syndrome also included an ATP regenerating system consisting of 10 mM creatine phosphate and 50 μg/ml creatine kinase. […] Gels were dried onto DEAE paper on top of Whatman filter paper (GE, Issaquah, WA, USA) and then analyzed in a BioRad Personal Molecular Imager FX phosphorimager. Band intensity was quantified using Image Lab software (Bio-Rad, Hercules, CA, USA). The fraction of DNA substrate digested was determined by measuring the amount of substrate remaining and normalizing to the total substrate in the negative control lane containing no protein.

In a further assay the target is T2, hDNA2 (Homo sapiens, UniProt P51530).
T2 construct: made in house
T2 sequence (P51530 1-1060): T1 sequence (P51530 1-1060)
The experiment in a line: Fluorescence nuclease assay with hDNA2 (triply labeled ssDNA). The format is biochemical. The settings on record: human DNA2 10 nM; substrate 0.1 μM; Figure 3c; read-out: IC50 (human DNA2), dose-response in vitro. On the procedure: Figure 3 Validation of the top two inhibitors identified from the high-throughput screen. […] (b, c) Dose-response curves for indicated compounds, cell based (U2OS cell line) (b) and in vitro (c). The IC50 value and the protein concentration used are indicated. Triple labeled substrate (0.1 μM) as in Figure 2a was used. The concentration range of inhibitors was 0.003–666.67 μM. […] The asterisks denote the radiolabel. Plotted are the average data from three independent experiments and the error bars represent 1 s.d. […]
In addition, a second dark quencher ZEN (N,N-diethyl-4-(4-nitronaphthalen-1-ylazo)-phenylamine, absorption max.=532 nm) is placed between 9th and 10th base (Figure 2a). […] The optimal amount of yDna2, hDNA2 and T5 nuclease was determined by utilizing the Kaleidagraph software (Reading, PA, USA) to fit the data according to Michaelis Menton Kinetics (V=V0+Vmax*x/(Km+x)). […] The Z’ value was calculated as previously described.[50] Cell proliferation was determined using 4,6-diamidino-2-phenylindole staining followed by high-throughput microscopy in a 384-well plate setup. In brief, cells were fixed with formaldehyde, washed and stained with 4,6-diamidino-2-phenylindole and the number of nuclei in each well counted by automated microscopy. The data were analyzed as described.[51]

Regarding `O=C1C(=O)c2cc([N+](=O)[O-])ccc2-c2ccccc21` [NSC-5195242, 2-nitrophenanthrene-9,10-dione], the “Resection in the reconstituted system” value in assay [1] is “inhibited”. On hDNA2, the IC50 (in general, the concentration at which inhibition is half-maximal) is 3100 nM.

Take `NC1=C(Br)C(=O)c2ncccc2C1=O` [NSC-105808, 6-amino-7-bromoquinoline-5,8-dione]: the “Resection in the reconstituted system” value in assay [1] was “inhibited”. In addition, the concentration for half-maximal inhibition (IC50) on hDNA2 was 1490 nM.

Values taken from PMC5520492, “Inhibition of DNA2 nuclease as a therapeutic strategy targeting replication stress in cancer cells” (Oncogenesis, 2017).
